Target: T1, FGFR3 K650E (Homo sapiens, UniProt P22607, K650E)
T1 construct: purchased Thermo Fisher Scientific (Life Technologies) SelectScreen
Test: SelectScreen Z'LYTE
Assay type: biochemical
Summary of the method: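 NU5455 was profiled across the SelectScreen Broad panel of kinase activity and binding assays. Z'LYTE reactions such as CSF1R ran at apparent Km ATP, while the Adapta CAMK1 assay used ATP listed as 10. Values are given as percent.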

T1 sequence (P22607 23-806 K650E): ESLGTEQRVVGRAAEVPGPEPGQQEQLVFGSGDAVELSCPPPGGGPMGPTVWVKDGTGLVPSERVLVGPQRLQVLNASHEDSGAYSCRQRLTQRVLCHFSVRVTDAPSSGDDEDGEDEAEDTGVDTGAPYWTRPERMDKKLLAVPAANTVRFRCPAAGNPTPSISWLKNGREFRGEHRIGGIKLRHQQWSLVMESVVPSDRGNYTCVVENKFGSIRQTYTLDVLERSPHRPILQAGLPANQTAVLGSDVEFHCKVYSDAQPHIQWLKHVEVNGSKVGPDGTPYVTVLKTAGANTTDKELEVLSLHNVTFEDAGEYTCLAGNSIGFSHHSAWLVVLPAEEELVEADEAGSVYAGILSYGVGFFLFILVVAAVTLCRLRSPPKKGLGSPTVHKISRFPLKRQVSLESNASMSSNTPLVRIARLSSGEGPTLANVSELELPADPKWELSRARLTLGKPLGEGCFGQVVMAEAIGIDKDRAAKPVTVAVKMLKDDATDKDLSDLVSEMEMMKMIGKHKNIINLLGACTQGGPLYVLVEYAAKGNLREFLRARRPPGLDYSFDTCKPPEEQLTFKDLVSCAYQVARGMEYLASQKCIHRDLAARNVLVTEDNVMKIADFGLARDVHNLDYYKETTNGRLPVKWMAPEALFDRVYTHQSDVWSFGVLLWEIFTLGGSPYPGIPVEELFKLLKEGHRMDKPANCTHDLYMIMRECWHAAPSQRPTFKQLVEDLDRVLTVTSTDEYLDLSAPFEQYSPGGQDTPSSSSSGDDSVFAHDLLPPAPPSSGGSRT

SMILES: CN(C(=O)CN1CCOCC1)c1ccc2sc3c(-c4cccc5c(=O)cc(N6CC7CCC(C6)O7)oc45)cccc3c2c1 [NU5455]
- inhibition at 1 µM: 7.9%
